{
  "source": "ChEMBL document CHEMBL5126639",
  "about": "“Semisynthesis and Evaluation of Anti-Inflammatory Activity of the Cassane-Type Diterpenoid Taepeenin F and of Some Synthetic Intermediates” (J Nat Prod, 2022)",
  "key": {"RAW264.7 [1]": {"test_system": "RAW264.7", "assay": "Anti-inflammatory activity against mouse RAW264.7 cells assessed as inhibition of LPS-induced NO production after 48 hrs by griess reagent assay", "type": "functional, cell-based", "settings": "RAW264.7, 48 h"}, "RAW264.7 [2]": {"test_system": "RAW264.7", "assay": "Anti-inflammatory activity against mouse RAW264.7 cells assessed as inhibition of LPS-induced NO production at 0.25 times of IC50 concentration after 24 to 72 hrs by griess reagent assay relative to control", "type": "functional, cell-based", "settings": "time 24-72 hrs"}, "HT-29": {"test_system": "HT-29", "assay": "Antiproliferative activity against human HT-29 cells assessed as reduction in cell viability after 72 hrs by MTT assay", "type": "functional, cell-based", "settings": "HT-29, 72 h"}, "RAW264.7 [3]": {"test_system": "RAW264.7", "assay": "Anti-inflammatory activity against mouse RAW264.7 cells assessed as inhibition of LPS-induced NO production after 24 hrs by griess reagent assay", "type": "functional, cell-based", "settings": "RAW264.7, 24 h"}, "Plasmodium falciparum": {"test_system": "Plasmodium falciparum", "assay": "Antimalarial activity against Plasmodium falciparum FCR-3/A2 erythrocytic stage infected in human erythrocytes assessed as reduction in parasite growth after 48 hrs by Giemsa staining based assay", "type": "functional, organism-based", "settings": "FCR-3/A2, Erythrocyte"}, "B16-F10 [4]": {"test_system": "B16-F10", "assay": "Induction apoptosis in mouse B16-F10 cells assessed as viable cells at IC80 concentration after 72 hrs by AnnexinV/propidium iodide staining based flow cytometric analysis (reference value: 87.8%)", "type": "functional"}, "B16-F10 [5]": {"test_system": "B16-F10", "assay": "Induction apoptosis in mouse B16-F10 cells assessed as viable cells at IC50 concentration after 48 hrs by AnnexinV/propidium iodide staining based flow cytometric analysis (reference value: 86.9%)", "type": "functional"}, "HepG2": {"test_system": "HepG2", "assay": "Antiproliferative activity against human HepG2 cells assessed as reduction in cell viability after 72 hrs by MTT assay", "type": "functional, cell-based"}, "B16-F10 [6]": {"test_system": "B16-F10", "assay": "Induction apoptosis in mouse B16-F10 cells assessed as increase in apoptotic cells at IC50 to IC80 concentration after 48 to 72 hrs by AnnexinV/propidium iodide staining based flow cytometric analysis", "type": "functional, cell-based", "settings": "time 48-72 hrs, DDE = dose-dependent effect"}, "B16-F10 [7]": {"test_system": "B16-F10", "assay": "Induction of cell cycle arrest in mouse B16-F10 cells assessed as cells accumulation at S phase at IC50 concentration after 72 hrs by propidium iodide staining based flow cytometric analysis (reference value: 39.21%)", "type": "functional"}, "B16-F10 [8]": {"test_system": "B16-F10", "assay": "Induction of cell cycle arrest in mouse B16-F10 cells assessed as cells accumulation at G2/M phase at IC80 concentration after 72 hrs by propidium iodide staining based flow cytometric analysis (reference value: 3.16%)", "type": "functional"}, "B16-F10 [9]": {"test_system": "B16-F10", "assay": "Induction apoptosis in mouse B16-F10 cells assessed as early apoptotic cells at IC50 concentration after 72 hrs by AnnexinV/propidium iodide staining based flow cytometric analysis (reference value: 0.1%)", "type": "functional"}, "B16-F10 [10]": {"test_system": "B16-F10", "assay": "Induction apoptosis in mouse B16-F10 cells assessed as necrotic cells at IC50 concentration after 72 hrs by AnnexinV/propidium iodide staining based flow cytometric analysis (reference value: 9.9%)", "type": "functional"}, "[11]": {"assay": "Inhibition of LPS-induced cell cycle arrest in mouse RAW264.7 cells assessed as cell accumulation at G2/M phase at 0.25 to 0.75 IC50 concentration after 72 hrs by propidium iodide staining based flow cytometric analysis relative to control", "type": "functional", "set-up": "scale not given: the % may be the effect or the level left"}, "B16-F10 [12]": {"test_system": "B16-F10", "assay": "Induction of cell cycle arrest in mouse B16-F10 cells assessed as cells accumulation at G2/M phase at IC50 concentration after 72 hrs by propidium iodide staining based flow cytometric analysis (reference value: 3.16%)", "type": "functional"}, "RAW264.7 [13]": {"test_system": "RAW264.7", "assay": "Inhibition of LPS-induced cell differentiation in mouse RAW264.7 cells at 0.25 to 0.75 IC50 concentration after 72 hrs by propidium iodide staining based flow cytometric analysis", "type": "functional", "settings": "DDE = dose-dependent effect"}, "B16-F10 [14]": {"test_system": "B16-F10", "assay": "Induction apoptosis in mouse B16-F10 cells assessed as necrotic cells at IC80 concentration after 48 hrs by AnnexinV/propidium iodide staining based flow cytometric analysis (reference value: 8.2%)", "type": "functional"}, "[15]": {"assay": "Inhibition of LPS-induced cell cycle arrest in mouse RAW264.7 cells assessed as cell accumulation at G0/G1 phase at 0.25 to 0.75 IC50 concentration after 72 hrs by propidium iodide staining based flow cytometric analysis relative to control", "type": "functional", "set-up": "scale not given: the % may be the effect or the level left"}, "B16-F10 [16]": {"test_system": "B16-F10", "assay": "Induction apoptosis in mouse B16-F10 cells assessed as necrotic cells at IC50 concentration after 48 hrs by AnnexinV/propidium iodide staining based flow cytometric analysis (reference value: 8.2%)", "type": "functional"}, "B16-F10 [17]": {"test_system": "B16-F10", "assay": "Induction apoptosis in mouse B16-F10 cells assessed as viable cells at IC80 concentration after 48 hrs by AnnexinV/propidium iodide staining based flow cytometric analysis (reference value: 86.9%)", "type": "functional"}, "[18]": {"assay": "Inhibition of LPS-induced cell cycle arrest in mouse RAW264.7 cells assessed as cell accumulation at S phase at 0.25 to 0.75 IC50 concentration after 72 hrs by propidium iodide staining based flow cytometric analysis relative to control", "type": "functional", "set-up": "scale not given: the % may be the effect or the level left"}},
  "note": "Active and inactive are the calls of the source. No cut-off for these calls is given here.",
  "data": [
    {"smiles": "C[C@H]1c2ccoc2C[C@H]2[C@H]1[C@H]1O[C@H]1[C@@]1(O)C(C)(C)[C@@H](OC(=O)c3ccccc3)CC[C@]21C", "values": [
      {"measurement": "IC50", "setting": "RAW264.7 [1]", "result": 2.9, "unit": "µM"}
    ]},
    {"smiles": "COC(=O)[C@]1(C)CCC[C@]2(C)c3cc(O)c(C(C)C)c(C)c3CC[C@@H]12", "values": [
      {"measurement": "inhibition", "setting": "RAW264.7 [2]", "result": "Active"},
      {"measurement": "IC50", "setting": "HT-29", "result": 222, "unit": "µM"}
    ]},
    {"smiles": "CC(=O)O[C@H]1[C@@H]2OC(=O)[C@@H]3c4ccoc4C[C@@H]([C@@H]23)[C@@]2(C)[C@@H](O)CCC(C)(C)[C@]12O", "values": [
      {"measurement": "IC50", "setting": "RAW264.7 [3]", "result": 25.4, "unit": "µM"}
    ]},
    {"smiles": "COC(=O)[C@]1(C)CCC[C@]2(C)c3cc(O)c(CO)c(C)c3CC[C@@H]12", "values": [
      {"measurement": "inhibition", "setting": "RAW264.7 [2]", "result": "Active"}
    ]},
    {"smiles": "CC(=O)O[C@H]1CC(C)(C)[C@]2(O)CCc3c(cc(O)c(C=O)c3C)[C@@]2(C)[C@H]1OC(C)=O", "note": "[NORCAESALPININ C]", "values": [
      {"measurement": "IC50", "setting": "Plasmodium falciparum", "result": 5, "unit": "µM"}
    ]},
    {"smiles": "COC(=O)[C@]1(C)CCC[C@]2(C)c3cc4c(c(C)c3CC[C@@H]12)CC(=O)O4", "values": [
      {"measurement": "inhibition", "setting": "RAW264.7 [2]", "result": "Active"}
    ]},
    {"smiles": "COC(=O)[C@]1(C)CCC[C@@]2(C)[C@H]1CC=C1C(C)=C(C(C)C)C(=O)C[C@@H]12", "values": [
      {"measurement": "Activity", "setting": "B16-F10 [4]", "result": 47.5, "unit": "%"},
      {"measurement": "Activity", "setting": "B16-F10 [5]", "result": 84.1, "unit": "%"},
      {"measurement": "IC80", "setting": "HepG2", "result": 72.4, "unit": "µM"},
      {"measurement": "inhibition", "setting": "RAW264.7 [2]", "result": "Active"},
      {"measurement": "Activity", "setting": "B16-F10 [6]", "result": "Dde"},
      {"measurement": "Activity", "setting": "B16-F10 [7]", "result": 38.83, "unit": "%"},
      {"measurement": "Activity", "setting": "B16-F10 [8]", "result": 1.22, "unit": "%"},
      {"measurement": "Activity", "setting": "B16-F10 [9]", "result": 0.1, "unit": "%"},
      {"measurement": "Activity", "setting": "B16-F10 [10]", "result": 3.8, "unit": "%"},
      {"measurement": "Activity", "setting": "[11]", "result": 0.3, "unit": "%"},
      {"measurement": "Activity", "setting": "B16-F10 [12]", "result": 1.12, "unit": "%"},
      {"measurement": "inhibition", "setting": "RAW264.7 [13]", "result": "Dde"},
      {"measurement": "Activity", "setting": "B16-F10 [14]", "result": 2.8, "unit": "%"},
      {"measurement": "Activity", "setting": "[15]", "result": 68, "unit": "%"},
      {"measurement": "Activity", "setting": "B16-F10 [16]", "result": 2.7, "unit": "%"}
    ]},
    {"smiles": "COC(=O)[C@]1(C)CCC[C@]2(C)c3cc(O)c(C=O)c(C)c3CC[C@@H]12", "values": [
      {"measurement": "Activity", "setting": "B16-F10 [4]", "result": 57.9, "unit": "%"},
      {"measurement": "Activity", "setting": "B16-F10 [17]", "result": 64.9, "unit": "%"},
      {"measurement": "inhibition", "setting": "RAW264.7 [2]", "result": "Active"},
      {"measurement": "Activity", "setting": "B16-F10 [6]", "result": "Dde"},
      {"measurement": "Activity", "setting": "B16-F10 [8]", "result": 0, "unit": "%"},
      {"measurement": "Activity", "setting": "B16-F10 [10]", "result": 0.9, "unit": "%"},
      {"measurement": "Activity", "setting": "[11]", "result": 0.3, "unit": "%"},
      {"measurement": "Activity", "setting": "B16-F10 [12]", "result": 0.18, "unit": "%"},
      {"measurement": "inhibition", "setting": "RAW264.7 [13]", "result": "Dde"},
      {"measurement": "Activity", "setting": "B16-F10 [14]", "result": 2.2, "unit": "%"},
      {"measurement": "Activity", "setting": "[15]", "result": 68, "unit": "%"},
      {"measurement": "Activity", "setting": "B16-F10 [16]", "result": 2.8, "unit": "%"},
      {"measurement": "Activity", "setting": "[18]", "result": 69, "unit": "%"}
    ]},
    {"smiles": "CC(=O)O[C@H]1CCC(C)(C)[C@]2(O)[C@@H](OC(C)=O)[C@@H]3OC(=O)[C@@H]4c5ccoc5C[C@@H]([C@@H]34)[C@@]12C", "note": "[CAESALPININ D]", "values": [
      {"measurement": "IC50", "setting": "RAW264.7 [3]", "result": 25.4, "unit": "µM"}
    ]}
  ]
}
